The supplement of paper PMC13380429

Tests used:
Conditions in all cases: 72 h
Caco-2 [1] = test: drug sensitivity score (DSS) for viability; higher = more toxic; extreme values may be limits of the assay
U2OS [2] = test: as above
Vero E6 [3] = test: as above
Calu-3 [4] = test: as above
Caco-2 [5] = test: relative viability EC50 (midpoint between 100% and the lowest measured viability); higher = less toxic
U2OS [6] = test: as above
Vero E6 [7] = test: as above
Calu-3 [8] = test: as above
Caco-2 [9] = test: cell viability relative to DMSO; higher = less toxic
U2OS [10] = test: as above
Vero E6 [11] = test: as above
Calu-3 [12] = test: as above
HepG2 [13] = test: drug sensitivity score (DSS) for viability; higher = more toxic; extreme values may be limits of the assay
HepG2 [14] = test: relative viability EC50 (midpoint between 100% and the lowest measured viability); higher = less toxic
HepG2 [15] = test: cell viability relative to DMSO; higher = less toxic

SMILES	drug sensitivity score (Caco-2 [1])	drug sensitivity score (U2OS [2])	drug sensitivity score (Vero E6 [3])	drug sensitivity score (Calu-3 [4])	relative viability EC50 (Caco-2 [5])	relative viability EC50 (U2OS [6])	relative viability EC50 (Vero E6 [7])	relative viability EC50 (Calu-3 [8])	cell viability (Caco-2 [9]; 1 nM)	cell viability (Caco-2 [9]; 10 nM)	cell viability (Caco-2 [9]; 100 nM)	cell viability (Caco-2 [9]; 1000 nM)	cell viability (Caco-2 [9]; 10000 nM)	cell viability (U2OS [10]; 1 nM)	cell viability (U2OS [10]; 10 nM)	cell viability (U2OS [10]; 100 nM)	cell viability (U2OS [10]; 1000 nM)	cell viability (U2OS [10]; 10000 nM)	cell viability (Vero E6 [11]; 1 nM)	cell viability (Vero E6 [11]; 10 nM)	cell viability (Vero E6 [11]; 100 nM)	cell viability (Vero E6 [11]; 1000 nM)	cell viability (Vero E6 [11]; 10000 nM)	cell viability (Calu-3 [12]; 1 nM)	cell viability (Calu-3 [12]; 10 nM)	cell viability (Calu-3 [12]; 100 nM)	cell viability (Calu-3 [12]; 1000 nM)	cell viability (Calu-3 [12]; 10000 nM)	drug sensitivity score (HepG2 [13])	relative viability EC50 (HepG2 [14])	cell viability (HepG2 [15]; 1 nM)	cell viability (HepG2 [15]; 10 nM)	cell viability (HepG2 [15]; 100 nM)	cell viability (HepG2 [15]; 1000 nM)	cell viability (HepG2 [15]; 10000 nM)
COc1cc(OC)c(OC)cc1C=O [asaraldehyde]	0	0	0	0	> 10 µM	> 10 µM	> 10 µM	> 10 µM	95.2%	102%	94.8%	104%	90.1%	97.3%	103%	97.7%	105%	99%	108%	100%	98.6%	103%	102%	87%	108%	90.5%	107%	88.3%	–	–	–	–	–	–	–
C[N+](C)(C)CCOP(=O)(O)OC[C@H](O)CO [choline-alfoscerate]	0	0	–	0	> 10 µM	> 10 µM	–	> 10 µM	106%	101%	100%	100%	102%	105%	102%	101%	99.4%	98%	–	–	–	–	–	99.9%	98%	91.2%	96.3%	102%	–	–	–	–	–	–	–
O=C(O[C@@H]1Cc2c(O)cc(O)cc2O[C@@H]1c1ccc(O)c(O)c1)c1cc(O)c(O)c(O)c1 [epicatechin-gallate-(-)]	0	0	0	0	> 10 µM	> 10 µM	> 10 µM	> 10 µM	99.7%	93.6%	87.7%	92%	100%	97.7%	97.5%	103%	97.2%	101%	105%	102%	99%	96.1%	99%	107%	102%	93.2%	91%	104%	–	–	–	–	–	–	–
CC(C)OC(=O)C(C)(C)Oc1ccc(C(=O)c2ccc(Cl)cc2)cc1 [fenofibrate]	–	0	–	0	–	> 10 µM	–	> 10 µM	–	–	–	–	–	100%	100%	98.4%	95.7%	92.6%	–	–	–	–	–	103%	111%	102%	36.9%	94.5%	–	–	–	–	–	–	–
CCCCCCCC/C=C/CCCCCCCC(=O)OC[C@H]1O[C@@H](n2ccc(N)nc2=O)C(F)(F)[C@@H]1O [gemcitabine-elaidate]	7.6	8.2	13.4	12.3	–	–	–	0.179 µM	95.3%	96.1%	79.7%	68.5%	67.6%	105%	110%	70.2%	77%	70.7%	105%	104%	55.6%	61.5%	58.3%	106%	90.1%	69.1%	57.8%	35.2%	25.2	0.0077 µM	104%	57.6%	36.5%	35.8%	38.5%
CC(C(=O)O)c1ccc(N2Cc3ccccc3C2=O)cc1 (stereo not given) [indoprofen]	0	0	0	0	> 10 µM	> 10 µM	> 10 µM	> 10 µM	91.9%	97.8%	99.5%	96.5%	93.8%	95.8%	97.6%	103%	100%	102%	95.9%	99.6%	97.8%	99.4%	105%	84.3%	104%	97.1%	92.9%	94.1%	–	–	–	–	–	–	–
c1ccc(Cn2c(N3CCNCC3)nc3ccccc32)cc1 [lerisetron]	0	0	0	0	> 10 µM	> 10 µM	> 10 µM	> 10 µM	100%	98.6%	104%	98.9%	96.5%	99.2%	95.4%	105%	98.1%	99.9%	103%	100%	99.4%	98.7%	96.6%	97.6%	95.8%	100%	98%	96.3%	–	–	–	–	–	–	–
CCCc1nc(C(C)(C)O)c(C(=O)OCc2oc(=O)oc2C)n1Cc1ccc(-c2ccccc2-c2nnn[nH]2)cc1 [olmesartan-medoxomil]	0	0	0	0	> 10 µM	> 10 µM	> 10 µM	> 10 µM	92.8%	96%	97.5%	91.4%	99.3%	95.3%	93.7%	99.6%	96.3%	99.2%	97.6%	99.2%	94.6%	89%	115%	91.5%	92.9%	100%	94.3%	104%	–	–	–	–	–	–	–
CC(C)(CO)[C@@H](O)C(=O)NCCC(=O)O [pantothenic-acid]	2.4	0	0	0	–	> 10 µM	> 10 µM	> 10 µM	101%	97.3%	96.7%	94.8%	66.4%	95.9%	91.4%	101%	92.3%	97.4%	100%	103%	95%	98.5%	94%	99.6%	97.7%	106%	87.8%	103%	–	–	–	–	–	–	–
CC(CCc1ccc(O)cc1)NCC(O)c1ccc(O)cc1 (stereo not given) [ractopamine]	0	0	0	0	> 10 µM	> 10 µM	> 10 µM	> 10 µM	91.9%	84.6%	104%	110%	114%	100%	98.1%	99.1%	99.2%	101%	115%	102%	101%	99.3%	104%	92.8%	87.2%	101%	94.4%	115%	–	–	–	–	–	–	–
C[C@]12CC[C@H](O)C[C@H]1CC[C@@H]1[C@@H]2CC[C@]2(C)[C@@](O)(c3ccoc3)CC[C@]12O [rostafuroxine]	0	0	0	0	> 10 µM	> 10 µM	> 10 µM	> 10 µM	103%	98%	99.7%	97.8%	109%	102%	98.6%	101%	101%	101%	103%	102%	99.2%	96.1%	99.7%	96.4%	88.4%	103%	94.7%	99.6%	–	–	–	–	–	–	–
NCCc1c[nH]c2ccc(O)cc12 [serotonin]	0	0	0	–	> 10 µM	> 10 µM	> 10 µM	–	96.8%	89.1%	102%	90.2%	89.5%	91.3%	95.8%	94.3%	97.3%	92.9%	107%	102%	103%	98.9%	101%	–	–	–	–	–	0	> 10 µM	89.2%	91.4%	94.3%	88.4%	107%
Cc1nc(-c2cn3c(n2)-c2ccc(-c4cnn(C(C)(C)C(N)=O)c4)cc2OCC3)n(C(C)C)n1 [taselisib]	8.9	6.2	3.5	16.9	0.649 µM	–	–	0.107 µM	106%	99.6%	90.8%	59.4%	32.4%	102%	97.3%	90.4%	70.3%	57.2%	106%	106%	97.3%	85%	62.6%	99.2%	88.1%	63.6%	36%	24%	11.6	–	97.4%	84.8%	70.3%	62.7%	52%
COc1ccc2[nH]c([S+]([O-])Cc3ncc(C)c(OC)c3C)nc2n1 (stereo not given) [tenatoprazole]	–	–	–	0	–	–	–	> 10 µM	–	–	–	–	–	–	–	–	–	–	–	–	–	–	–	109%	114%	103%	96.6%	105%	0	> 10 µM	101%	113%	104%	106%	97.7%
O=c1oc2cc(O)ccc2s1 [tioxolone]	0.5	0	0	1.9	> 10 µM	> 10 µM	> 10 µM	–	90.6%	97.9%	88.6%	107%	77.2%	96.2%	103%	100%	104%	95.6%	101%	98.1%	99.9%	94.2%	101%	99.8%	102%	97.8%	98.5%	64.3%	0	> 10 µM	104%	90.4%	96%	93.7%	104%
CC(C(=O)O)c1ccc2c(c1)CC(=O)c1ccccc1S2 (stereo not given) [zaltoprofen]	0	0	0	–	> 10 µM	> 10 µM	> 10 µM	–	99.7%	93.8%	98.4%	106%	101%	99.9%	97.3%	99.6%	98.1%	101%	93.8%	101%	90.9%	100%	104%	–	–	–	–	–	0	> 10 µM	95.5%	103%	101%	110%	111%
OCCN1CCN(CC/C=C2/c3ccccc3Sc3ccc(Cl)cc32)CC1 [zuclopenthixol]	0.8	1.1	0.8	4.1	> 10 µM	> 10 µM	> 10 µM	1.95 µM	105%	80.8%	92.8%	94.8%	82%	99.6%	96%	99.6%	97.1%	79.2%	95.2%	95%	93%	93.7%	79.2%	95.1%	93.9%	98.9%	91.9%	47.9%	1.8	–	93.4%	101%	89.9%	98.6%	66%
